ChEMBL document CHEMBL3877336, “Structure-Based Design of ASK1 Inhibitors as Potential Agents for Heart Failure” (ACS Med Chem Lett, 2017)

Experiments:
[1] = target: T1, Mitogen-activated protein kinase kinase kinase 5 (Homo sapiens, UniProt Q99683); experiment: Inhibition of recombinant human N-terminal GST-tagged ASK1 catalytic domain (654 to 971 residues) expressed in baculovirus infected sf21 cells using STK3 as substrate after 60 mins by HTRF assay
T1 sequence (Q99683 whole entry): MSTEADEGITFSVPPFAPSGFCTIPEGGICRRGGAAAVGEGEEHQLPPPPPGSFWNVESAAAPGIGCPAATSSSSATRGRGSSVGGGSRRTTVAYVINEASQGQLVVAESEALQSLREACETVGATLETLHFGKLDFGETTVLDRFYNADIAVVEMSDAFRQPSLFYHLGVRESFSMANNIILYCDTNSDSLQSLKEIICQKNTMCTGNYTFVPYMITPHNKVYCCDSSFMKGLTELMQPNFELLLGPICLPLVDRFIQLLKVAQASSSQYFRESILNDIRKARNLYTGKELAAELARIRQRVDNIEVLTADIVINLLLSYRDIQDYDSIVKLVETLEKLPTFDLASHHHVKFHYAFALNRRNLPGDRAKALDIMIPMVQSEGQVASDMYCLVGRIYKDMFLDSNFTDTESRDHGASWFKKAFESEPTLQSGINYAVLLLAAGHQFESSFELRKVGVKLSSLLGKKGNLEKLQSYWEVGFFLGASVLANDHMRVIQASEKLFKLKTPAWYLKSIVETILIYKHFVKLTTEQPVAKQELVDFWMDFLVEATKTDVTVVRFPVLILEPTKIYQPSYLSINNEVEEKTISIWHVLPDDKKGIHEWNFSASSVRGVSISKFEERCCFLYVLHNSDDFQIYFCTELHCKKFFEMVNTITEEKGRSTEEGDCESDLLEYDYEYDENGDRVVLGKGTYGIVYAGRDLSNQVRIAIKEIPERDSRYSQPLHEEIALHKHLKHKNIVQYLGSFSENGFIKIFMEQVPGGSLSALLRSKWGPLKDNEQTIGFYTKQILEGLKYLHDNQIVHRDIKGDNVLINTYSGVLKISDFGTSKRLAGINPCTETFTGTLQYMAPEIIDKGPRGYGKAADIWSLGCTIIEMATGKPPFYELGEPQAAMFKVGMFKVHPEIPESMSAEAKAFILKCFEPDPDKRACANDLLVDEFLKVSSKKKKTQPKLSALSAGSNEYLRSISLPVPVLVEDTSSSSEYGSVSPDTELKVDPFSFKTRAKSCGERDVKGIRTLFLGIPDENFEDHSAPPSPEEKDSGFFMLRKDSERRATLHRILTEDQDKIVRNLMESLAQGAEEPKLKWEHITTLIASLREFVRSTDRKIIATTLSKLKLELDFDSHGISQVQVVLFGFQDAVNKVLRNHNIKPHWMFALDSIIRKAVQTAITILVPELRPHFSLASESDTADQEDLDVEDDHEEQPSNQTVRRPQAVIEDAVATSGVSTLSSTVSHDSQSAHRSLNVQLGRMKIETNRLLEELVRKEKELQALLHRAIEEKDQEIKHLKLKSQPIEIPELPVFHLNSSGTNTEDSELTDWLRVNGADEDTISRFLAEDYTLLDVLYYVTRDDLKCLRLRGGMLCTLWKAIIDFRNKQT

[2] = system: MDR1 (human); experiment: Apparent permeability from apical to basolateral side in pig LLC-PK1 cells expressing human MDR1 at 10 uM after 2 hrs by LC-MS/MS analysis; type: ADME, cell-based, Sus scrofa
[3] = Solubility of the compound in pH 1 solution at 155 uM after overnight incubation by HPLC method; type: physicochemical; settings: buffer, pH 1, 155 µM
[4] = target: T1, Mitogen-activated protein kinase kinase kinase 5; experiment: Inhibition of human ASK1 expressed in HEK293 cells assessed as inhibition of H2O2-induced JNK phosphorylation preincubated for 30 mins followed by H2O2 addition measured after 30 mins by ELISA; type: cell-based
[5] = system: Rattus norvegicus; experiment: Anti-ischemic activity in Langendorff perfused Sprague-Dawley rat heart assessed as reduction in infarct size at 2.25 mg/kg, po administered via gavage 8 hrs prior to ischemia/reperfusion relative to control; type: functional; design: scale not given: the % may be the effect or the level left
[6] = Intrinsic clearance in human liver microsomes at 1 uM up to 30 mins in presence of NADPH by UPLC-MS/MS analysis; type: ADME; settings: read-out: CLH
[7] = system: Rattus norvegicus; experiment: Anti-ischemic activity in Langendorff perfused Sprague-Dawley rat heart assessed as reduction in infarct size at 2.25 mg/kg, po administered via gavage administered 1 hr prior to ischemia/reperfusion relative to control; type: functional; design: scale not given: the % may be the effect or the level left
[8] = Intrinsic clearance in rat liver microsomes at 1 uM up to 30 mins in presence of NADPH by UPLC-MS/MS analysis; type: ADME; settings: read-out: CLH
[9] = system: MDR1 (human); experiment: Apparent permeability from basolateral to apical side in pig LLC-PK1 cells expressing human MDR1 at 10 uM after 2 hrs by LC-MS/MS analysis; type: ADME, cell-based, Sus scrofa

SMILES | IC50 [1] [nM] | EC50 [4] [nM] | other results
O=C1c2ccccc2CN1c1cccc(-c2nncn2CC2CCO2)n1 (stereo not drawn) | 794 |  | 
Cc1ccc(C(=O)Nc2cccc(-c3nncn3C(C)C)n2)c(F)c1 | 50.1 |  | 
C[C@@H](CO)n1cnnc1-c1cccc(N2Cc3ccccc3C2=O)n1 | 31.6 |  | 
CC[C@@H](C)n1cnnc1-c1cccc(N2Cc3ccccc3C2=O)n1 | 50.1 |  | 
CC(CF)n1cnnc1-c1cccc(N2Cc3ccccc3C2=O)n1 (stereo not drawn) | 12.6 |  | 
CC[C@H](C)n1cnnc1-c1cccc(N2Cc3ccccc3C2=O)n1 | 20 |  | 
CC(CC#N)n1cnnc1-c1cccc(N2Cc3ccccc3C2=O)n1 (stereo not drawn) | 20 |  | 
Cc1cc(F)c(C(=O)Nc2ccccn2)cc1-n1cnc(C2CC2)c1 | 6310 |  | 
CC(C)Oc1ccc2c(c1)C(=O)N(c1cccc(-c3nncn3C(C)C)n1)C2 | 15.8 | 31.6 | 
CC(CCO)n1cnnc1-c1cccc(N2Cc3ccccc3C2=O)n1 (stereo not drawn) | 39.8 |  | 

More lines, main results first:

IC50 [1] [nM] | EC50 [4] [nM] | SMILES | other results
10 |  | C[C@H](CO)n1cnnc1-c1cccc(N2Cc3ccccc3C2=O)n1 | 
5.01 | 6.31 | CC(C)Oc1ccc2c(c1)C(=O)N(c1cccc(-c3nncn3[C@H](C)CO)n1)C2 | Papp A→B at 2 h, 10 µM [2]: 5.49 ×10⁻⁶ cm/s; solubility [3]: Soluble; Activity [5]: 24%; CLint scaled at 1 µM [6]: < 8.3 mL/min/kg; Activity [7]: 42%; CLint scaled at 1 µM [8]: < 16.6 mL/min/kg; Papp B→A at 2 h, 10 µM [9]: 26.2 ×10⁻⁶ cm/s
12.6 |  | CC(C)n1cnnc1-c1cccc(N2Cc3ccccc3C2=O)n1 | 
6.31 | 6.31 | CC(C)n1cnnc1-c1cccc(N2Cc3ccc(OC[C@@H]4CN(C)CCO4)cc3C2=O)n1 | 
7.94 | 15.8 | COCCOc1ccc2c(c1)C(=O)N(c1cccc(-c3nncn3C(C)C)n1)C2 | 
7.94 | 12.6 | COCCOc1ccc2c(c1)C(=O)N(c1cccc(-c3nncn3[C@H](C)CO)n1)C2 | 
